Test results: patent publication US6403602B1 (priority 1997, dated 2002)
“Also recorded” adds a separate entry of the source. Structures can show the parent of a compound that is named as a salt. Where two headings read alike, the source gives them in different places.

Columns and labels:
[1] = tested on: electrically stimulated mouse vas deferens; test: tissue or blood; type: cell-based
[2] = tested on: electrically stimulated guinea pig ileum; test: tissue or blood; type: cell-based
mu receptors = type: cell-based, guinea pig
delta receptors [3] = target: T1, delta receptors (Mus musculus, UniProt P32300); type: cell-based
T1 construct: The vas deferens from Swiss-Webster mice (30-35 g) were prepared as described by Hughes et al; from tissue; host or cells: mouse vas deferens (Swiss-Webster)
T1 sequence (P32300 whole entry): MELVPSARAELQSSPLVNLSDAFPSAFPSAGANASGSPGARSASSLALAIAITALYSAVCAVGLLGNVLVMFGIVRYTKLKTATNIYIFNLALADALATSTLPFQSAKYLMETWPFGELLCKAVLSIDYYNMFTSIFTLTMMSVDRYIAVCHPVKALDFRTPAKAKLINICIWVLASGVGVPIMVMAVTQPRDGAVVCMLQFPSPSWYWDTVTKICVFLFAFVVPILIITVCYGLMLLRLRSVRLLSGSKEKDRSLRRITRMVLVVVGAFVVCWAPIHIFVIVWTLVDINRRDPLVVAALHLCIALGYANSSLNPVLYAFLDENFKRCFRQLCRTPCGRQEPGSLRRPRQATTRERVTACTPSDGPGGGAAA

mu opioid receptors = mu opioid receptors (Cavia porcellus, UniProt A0ACM8Q262); type: binding, guinea pig; details: read-out: Ki μ [^3H]DAMGO
Chain of mu opioid receptors (A0ACM8Q262 1-400): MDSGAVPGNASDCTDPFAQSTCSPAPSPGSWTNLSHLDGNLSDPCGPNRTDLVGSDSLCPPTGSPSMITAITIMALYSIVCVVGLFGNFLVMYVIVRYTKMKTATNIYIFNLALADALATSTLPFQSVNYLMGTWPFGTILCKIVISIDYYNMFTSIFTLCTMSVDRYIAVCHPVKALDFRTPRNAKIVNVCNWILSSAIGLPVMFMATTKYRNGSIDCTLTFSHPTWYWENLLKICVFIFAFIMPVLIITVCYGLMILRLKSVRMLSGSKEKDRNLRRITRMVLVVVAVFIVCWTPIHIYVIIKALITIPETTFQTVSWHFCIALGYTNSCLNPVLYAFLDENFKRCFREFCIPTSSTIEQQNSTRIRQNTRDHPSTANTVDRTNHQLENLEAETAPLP

κ2 sites = type: binding, guinea pig
delta receptors [4] = target: T2, delta receptors (Cavia porcellus, UniProt A0A286XTF2); test: biochemical; type: binding, guinea pig
T2 construct: The brains were then homogenized in 50 mM Tris HCl, buffer pH 7.7, using a Polytron; from tissue; host or cells: guinea pig brain homogenate (membrane pellet)
T2 sequence (A0A286XTF2 1-366): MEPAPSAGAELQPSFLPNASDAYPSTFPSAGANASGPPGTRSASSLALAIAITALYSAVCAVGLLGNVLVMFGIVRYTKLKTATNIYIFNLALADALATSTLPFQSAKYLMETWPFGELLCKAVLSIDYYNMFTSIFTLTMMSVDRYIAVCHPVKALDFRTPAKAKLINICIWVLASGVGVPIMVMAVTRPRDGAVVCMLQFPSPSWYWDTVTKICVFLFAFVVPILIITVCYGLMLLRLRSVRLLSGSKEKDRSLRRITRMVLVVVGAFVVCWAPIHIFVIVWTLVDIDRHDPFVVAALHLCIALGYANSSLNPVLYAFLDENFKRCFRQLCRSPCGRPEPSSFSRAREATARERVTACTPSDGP

kappa3 receptors = type: binding, guinea pig; details: read-out: Ki κ3 [^3H]NalBzoH
kappa1 sites = target: T3, kappa1 sites (Cavia porcellus, UniProt P41144); test: biochemical; type: binding, guinea pig
T3 construct: The brains were then homogenized in 50 mM Tris HCl, buffer pH 7.7, using a Polytron; from tissue; host or cells: guinea pig brain homogenate (membrane pellet)
T3 sequence (P41144 whole entry): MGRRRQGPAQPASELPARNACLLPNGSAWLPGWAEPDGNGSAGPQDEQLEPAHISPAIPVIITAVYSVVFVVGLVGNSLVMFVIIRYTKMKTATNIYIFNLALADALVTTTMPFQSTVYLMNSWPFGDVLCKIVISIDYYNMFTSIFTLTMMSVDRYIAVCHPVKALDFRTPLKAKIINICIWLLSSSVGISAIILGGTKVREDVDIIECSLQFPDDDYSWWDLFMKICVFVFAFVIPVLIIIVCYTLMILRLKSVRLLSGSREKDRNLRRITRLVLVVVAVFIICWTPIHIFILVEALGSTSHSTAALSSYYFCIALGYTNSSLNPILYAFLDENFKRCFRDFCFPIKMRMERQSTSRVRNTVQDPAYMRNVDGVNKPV

kappa receptors = target: T4, kappa receptors (Cavia porcellus, UniProt P41144); type: cell-based, guinea pig
T4 construct: The longitudinal muscle with the myenteric plexus attached was gently separated from the underlying circular muscle; from tissue; host or cells: guinea pig ileum longitudinal muscle with myenteric plexus
T4 sequence (P41144 whole entry): as above

nociception (tail-flick) = test: Tail-flick test after subcutaneous administration; details: rat tail-flick, sc; for analgesic activity in words: dose equimolar to 5 mg/kg morphine
[5] = read-out: Mouse Vas Deferens IC50
[6] = read-out: Guinea Pig Ileum IC50
[7] = read-out: Ki δ, experiment done with [^3H]DPDPE
[8] = read-out: IC50 (nM), Mouse Vas Deferens
[9] = read-out: IC50 (nM), Guinea Pigs Ileum
[10] = Mus musculus, read-out: Mouse vas deferens maximum inhibition
[11] = Cavia porcellus, read-out: Guinea Pig Ileum IC50 (nM)

Compound | Guinea Pig Ileum DR with CTAP (mu receptors) | Ki (mu opioid receptors) [nM] | IC50 (κ2 sites) [nM] | Ki (kappa3 receptors) [nM] | Ki (kappa1 sites; read-out: Ki κ1 [^3H]U69,593) [nM] | Ki (delta receptors [4]; [7]) [nM] | Guinea Pig Ileum DR with Nor-BNI (kappa receptors) | Guinea Pig Ileum Ke of Nor-BNI (kappa receptors) | further results
3-O-Acetyl-7,8-dihydromorphine-6-O-sulfate [NIDA # 20,265] | 6.03 ± 0.97 | 13.7 | > 10000 |  |  |  |  |  | IC50 [1, 5]: 1110 nM; IC50 [2, 6]: 37.7 ± 6.55 nM; Guinea Pig Ileum Ke of CTAP (mu receptors): 20.25 ± 3.92; Mouse Vas Deferens DR with Naltrindole (delta receptors [3]): 0.924 ± 0.64; Ki (delta receptors [4]; read-out: Ki δ [^3H]Cl-DPDPE): 325 nM
CCCN1CCCC(c2cccc(O)c2)C1 (single isomer, unassigned; (+)) [(+) 3-PPP-HCl] |  | 3450 | > 10000 | 782 | 388 | > 10000 |  |  | 
CC1C2Cc3ccc(O)cc3C1(C)CCN2CC1CC1 (single isomer, unassigned; (+)) [(+) Cyclazocine] |  | 659 | > 10000 | 786 | 383 | > 10000 |  |  | 
C=CCN1CC[C@@]2(C)c3cc(O)ccc3CC1[C@@H]2C.Cl (single isomer, unassigned; (-)) [(−) SKF 10,047-HCl] | 0.44 ± 0.02 | 0.7 | 132 |  | 0.3 | 3.8 | 273.10 | 0.08 ± 0.01 | IC50 [2, 6]: 10.5 nM
CC[C@@]12CCN(CC3CC3)C(C(=O)c3ccc(O)cc31)[C@@H]2C (single isomer, unassigned; (-)) [(−)EKC] |  | 0.4 | 25.2 | 3.9 |  |  |  |  | IC50 [1, 8]: 5.31 nM; IC50 [2, 9]: 0.15 nM; DR with CTAP (mu receptors): 0.62; DR with Naltrindole (delta receptors [3]): 0.90; Ki (delta receptors [4]; read-out: Ki δ [^3H]Cl-DPDPE): 2 nM
CC(C)=CCN1CC[C@]2(C)c3cc(O)ccc3C[C@H]1[C@H]2C [(+) Pentazocine-succinate] |  | 595 | 5270 | 420 | 206 | 3480 |  |  | 
C=CCN1CC[C@@]2(C)c3cc(O)ccc3C[C@@H]1[C@@H]2C [(+) SKF 10,047-HCl] |  | 2120 | > 10000 | > 1000 | 2890 | > 10000 |  |  | 
O=C1/C(=C/c2ccccc2)C[C@@]2(O)[C@H]3Cc4ccc(O)c5c4[C@@]2(CCN3CC2CC2)[C@H]1O5 [BNTX] |  | 1.9 | 822 |  | 7.1 |  |  |  | 
CC(=O)Oc1ccc2c3c1O[C@H]1[C@@H](OS(=O)(=O)[O-])C=C[C@H]4[C@@H](C2)[N+](C)(C)CC[C@@]341 [NIDA # 20,269, 3-O-Acetyl-N-methylmorphinium-6-O-sulfate] |  |  | > 10000 | 400 |  |  |  |  | Mouse vas deferens, result in words [1]: lacks activity; inhibition at 200 µM [1, 10]: 20%; Guinea pig ileum, result in words [2]: no activity; also recorded: lacks activity; analgesic activity in words (nociception (tail-flick); listed as MM3A6S): devoid of any analgesic properties; also recorded: inactive; Ki (delta receptors [4]): 842 nM
CCC(=O)Oc1ccc2c3c1O[C@H]1[C@@H](OS(=O)(=O)O)C=C[C@H]4[C@@H](C2)N(C)CC[C@@]341 [NIDA # 20,270, 3-O-Propionylmorphine-6-O-sulfate] |  |  | > 10000 | 19.9 |  |  | 1.26 ± 0.33 | 40.73 | inhibition at 20 µM [1, 10]: 20%; IC50 [2, 11]: 154 ± 48.6 nM; Guinea Pig Ileum Ratio (Nor-BNI) (kappa receptors): 0.002; Guinea Pig Ileum Ke of CTAP (mu receptors): 37.58 ± 2.09; Guinea Pig Ileum Ratio (CTAP) (mu receptors): 0.515; Ki (kappa1 sites): 252 nM; Ki (delta receptors [4]): 40 nM
CC(C)C(=O)Oc1ccc2c3c1O[C@H]1[C@@H](OS(=O)(=O)O)C=C[C@H]4[C@@H](C2)N(C)CC[C@@]341 [NIDA # 20,271, 3-O-Isobutyrylmorphine-6-O-sulfate] | 9.45 ± 4.31 |  | > 10000 | 266 |  |  | 1.38 ± 0.01 | 53.14 ± 1.30 | inhibition at 100 µM [1, 10]: 38%; IC50 [2, 11]: 1960 nM; Guinea Pig Ileum Ratio (Nor-BNI) (kappa receptors): 0.001; Guinea Pig Ileum Ke of CTAP (mu receptors): 13.55 ± 6.89; Guinea Pig Ileum Ratio (CTAP) (mu receptors): 1.427; Ki (kappa1 sites): 4560 nM; Ki (delta receptors [4]): 584 nM
CN1CC[C@]23c4c5ccc(OC(=O)C(C)(C)C)c4O[C@H]2[C@@H](OS(=O)(=O)O)C=C[C@H]3[C@H]1C5 [NIDA # 20,272, 3-O-Pivaloylmorphine-6-O-sulfate] | 4.50 ± 0.14 |  | > 10000 | 11.2 |  |  | 1.13 ± 0.01 | 154.77 ± 16.8 | inhibition at 20 µM [1, 10]: 26.2%; IC50 [2, 11]: 69.3 ± 25 nM; Guinea Pig Ileum Ratio (Nor-BNI) (kappa receptors): 0.0004; Guinea Pig Ileum Ratio (CTAP) (mu receptors): 0.676; Ki (kappa1 sites): 1940 nM; Ki (delta receptors [4]): 15.2 nM
CN1CC[C@]23c4c5ccc(OC(=O)c6ccccc6)c4O[C@H]2[C@@H](OS(=O)(=O)O)C=C[C@H]3[C@H]1C5 [NIDA # 20,273, 3-O-Benzoylmorphine-6-O-sulfate] | 3.68 ± 0.27 |  | > 10000 | 513 |  |  | 1.31 ± 0.13 | 70.73 ± 29.13 | inhibition at 100 µM [1, 10]: 29.4%; Guinea pig ileum, result in words [2]: inhibited electrically induced twitches; IC50 [2, 11]: 658 ± 130 nM; Guinea Pig Ileum Ratio (Nor-BNI) (kappa receptors): 0.001; Guinea Pig Ileum Ke of CTAP (mu receptors): 34.92 ± 3.22; Guinea Pig Ileum Ratio (CTAP) (mu receptors): 0.554; analgesic activity in words (nociception (tail-flick); listed as M3B6S): gradual onset of weak analgesia; also recorded: inactive; maximum analgesia, % of maximal analgesia (nociception (tail-flick); equimolar dose, over 4 hours): 27%; Ki (delta receptors [4]): 600 nM
Oc1ccc2c3c1O[C@H]1c4oc5ccccc5c4C[C@@]4(O)[C@@H](C2)N(CC2CC2)CC[C@]314 [NTB] |  | 6.5 | 406 | 7.5 | 10.2 |  |  |  | Ki (delta receptors [4]; read-out: Ki δ [^3H]Cl-DPDPE): 0.06 nM
Oc1ccc2c3c1O[C@H]1c4[nH]c5c(c4C[C@@]4(O)[C@@H](C2)N(CC2CC2)CC[C@]314)C[C@@]1(O)[C@H]2Cc3ccc(O)c4c3[C@@]1(CCN2CC1CC1)[C@H]5O4 [Nor-BNI (HCl)2, nor-binaltorphimine] |  |  | 37.5 | 15 | 0.3 |  |  |  | Ki (delta receptors [4]): 6.3 nM
c1ccc(C2(N3CCCCC3)CCCCC2)cc1 [PCP-HCl] |  | > 10000 | > 10000 | > 10000 | > 10000 | > 10000 |  |  | 
c1csc(C2(N3CCCCC3)CCCCC2)c1 [TCP-HCl] |  | 2200 | > 10000 | > 10000 | 2040 | > 10000 |  |  | 
CC[C@H](C)[C@H](NC(=O)[C@H](C)NC(=O)[C@H](CC(N)=O)NC(=O)[C@H](CCCCN)NC(=O)[C@H](Cc1ccccc1)NC(=O)[C@H](CC(C)C)NC(=O)[C@@H](NC(=O)[C@@H](NC(=O)[C@H](CC(C)C)NC(=O)[C@@H]1CCCN1C(=O)[C@@H](NC(=O)[C@H](CCC(N)=O)NC(=O)[C@H](CO)NC(=O)[C@H](CCCCN)NC(=O)[C@H](CCC(=O)O)NC(=O)[C@H](CO)NC(=O)[C@@H](NC(=O)[C@H](CCSC)NC(=O)[C@H](Cc1ccccc1)NC(=O)CNC(=O)CNC(=O)[C@@H](N)Cc1ccc(O)cc1)[C@@H](C)O)[C@@H](C)O)C(C)C)[C@@H](C)O)C(=O)N[C@H](C(=O)N[C@@H](CCCCN)C(=O)N[C@@H](CC(N)=O)C(=O)N[C@@H](C)C(=O)N[C@@H](Cc1ccc(O)cc1)C(=O)N[C@@H](CCCCN)C(=O)N[C@@H](CCCCN)C(=O)NCC(=O)N[C@@H](CCC(=O)O)C(=O)O)[C@@H](C)CC [β-Endorphin-OH] | 5.86 |  | 2050 | 14.5 |  |  | 4.24 | 6.98 | IC50 [1, 5]: 68 nM; IC50 [2, 6]: 59.4 nM; Guinea Pig Ileum Ke of CTAP (mu receptors): 20.87; Mouse Vas Deferens DR with Naltrindole (delta receptors [3]): 7.98; Mouse Vas Deferens Ke of Naltrindole (delta receptors [3]): 0.156 ± 0.05
(−) Pentazocine-succinate | 0.73 ± 0.38 | 5.7 | 424 | 12.4 | 4.4 |  | 6.10 | 4.00 ± 0.8 | IC50 [2, 6]: 170 nM
Dynorphin (1-8) |  |  | 1760 | 12.9 |  |  |  |  | IC50 [1, 8]: 56.4 nM; IC50 [2, 9]: 71.8 nM; DR with Nor-BNI (kappa receptors): 18.44; Ke of Nor-BNI (kappa receptors): 1.21; Ratio (after Ke of Nor-BNI) (kappa receptors): 0.050; DR with CTAP (mu receptors): 0.98; DR with Naltrindole (delta receptors [3]): 2.77; Ke of Naltrindole (delta receptors [3]): 0.64; Ratio (after Ke of Naltrindole) (delta receptors [3]): 0.033
Leu-Enkephalin | 4.63 |  | > 10000 | 1670 |  |  | 1.94 | 21.41 | IC50 [1, 5]: 7.38 nM; IC50 [2, 6]: 87.3 nM; Guinea Pig Ileum Ratio (Nor-BNI) (kappa receptors): 0.002; Guinea Pig Ileum Ke of CTAP (mu receptors): 29.38; Guinea Pig Ileum Ratio (CTAP) (mu receptors): 0.659; Mouse Vas Deferens DR with Naltrindole (delta receptors [3]): 28.07; Mouse Vas Deferens Ke of Naltrindole (delta receptors [3]): 0.038; Mouse Vas Deferens Ratio (Naltrindole) (delta receptors [3]): 0.577
